{"source": "patent US11944429B2", "about": "“Automatically classifying animal behavior” (President and Fellows of Harvard College, priority 2015, dated 2024)", "system": "mice", "assay": "Innate behavioral response to odorant in odor box (3D depth imaging, AR-HMM)", "format": "in vivo, mouse", "data": [{"smiles": "CC1=NC(C)SC1C", "note": "(stereo not drawn) [TMT]", "values": [{"measurement": "behavioral response to odor-containing quadrant", "setting": "TMT delivered to one quadrant of the box via olfactometer", "value": "avoided the quadrant containing the predator cue and displayed prolonged periods of immobility"}, {"measurement": "per frame entropy rate with self-transitions", "setting": "after TMT exposure", "value": "0.64±0.02", "unit": "bits"}, {"measurement": "per frame entropy rate without self-transitions", "setting": "after TMT exposure", "value": "3.66±0.08", "unit": "bits"}, {"measurement": "number of times the most commonly-expressed freezing trigram was expressed", "setting": "after TMT exposure, in 300 minutes of imaging", "value": 716, "unit": "times"}, {"measurement": "average during-sequence velocity of freezing sequences", "setting": "mice in square box, TMT 5% delivered to one quadrant, newly concatenated pausing modules", "value": "−0.14±0.54", "unit": "mm/sec"}, {"measurement": "behavioral modules introduced or eliminated relative to control", "setting": "n=15 in TMT, n=25 control, model co-trained", "value": "no new modules were introduced or eliminated relative to control"}]}]}
